Laboratory results published in patent publication US20140057915A1, “KINASE INHIBITORS” (TOPIVERT PHARMA LIMITED, priority 2012, published 2014).

Assays:
[1] = target: cSrc (Homo sapiens, UniProt P12931); assay: c-Src enzyme inhibition (FRET); format: biochemical; settings: Table 4a1
Outline: (§1)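 Kinase activity is measured on a dual-labelled synthetic peptide by FRET. ATP is supplied as an 800 μM solution for c-Src and a 60 μM solution for Syk. Compound is tested at four added concentrations, 4 to 0.004 μg/mL.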

[2] = target: Syk (Homo sapiens, UniProt P43405); assay: Syk enzyme inhibition (FRET); format: biochemical; settings: Table 4a1
Outline: as §1

[3] = target: GSK3α (Homo sapiens, UniProt P49840); assay: GSK 3α enzyme inhibition (FRET), Method 1; format: biochemical; settings: Table 4a1
GSK3α, sequence (P49840 whole entry): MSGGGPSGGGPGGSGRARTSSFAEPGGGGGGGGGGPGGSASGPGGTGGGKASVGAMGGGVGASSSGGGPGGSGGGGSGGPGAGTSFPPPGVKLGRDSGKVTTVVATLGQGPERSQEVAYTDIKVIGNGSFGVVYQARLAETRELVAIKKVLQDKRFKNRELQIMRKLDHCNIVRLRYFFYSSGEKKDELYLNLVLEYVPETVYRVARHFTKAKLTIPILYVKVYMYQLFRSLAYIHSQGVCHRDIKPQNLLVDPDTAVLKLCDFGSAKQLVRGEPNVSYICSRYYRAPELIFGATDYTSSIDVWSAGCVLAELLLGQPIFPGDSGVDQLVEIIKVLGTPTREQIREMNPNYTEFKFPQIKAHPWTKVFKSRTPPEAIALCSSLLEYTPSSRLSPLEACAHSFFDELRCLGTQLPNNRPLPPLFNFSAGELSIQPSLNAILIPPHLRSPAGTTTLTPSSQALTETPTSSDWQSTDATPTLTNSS
Outline: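 Steps: preincubate GSK3α with compound 2 hr at room temperature; start reaction with peptide and ATP for 1 hr; develop with site-specific protease for 1 hr; measure fluorescence and take the coumarin/fluorescein ratio as the phosphorylation level.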

[4] = tested on: TNFα release, d-U937 cells; assay: LPS-induced TNFα release in d-U937 cells; format: cell-based; settings: Homo sapiens, dU937; relative to 10 μg/mL BIRB796; Table 4c1; read-out: LPS Induced Release of Cytokine in d-U937 Cells, TNFα REC50
Outline: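 U937 cells differentiated with PMA (100 ng/mL, 48–72 hr), pre-treated with compound for 2 hr, then stimulated with E. coli LPS (0.1 μg/mL) for 4 hr. Supernatant cytokine measured by sandwich ELISA; inhibition versus vehicle control, REC50 from concentration-response curve.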

[5] = tested on: IL-8 release, d-U937 cells; assay: LPS-induced IL-8 release in d-U937 cells; format: cell-based; settings: Homo sapiens, dU937; Table 4c1; read-out: LPS Induced Release of Cytokine in d-U937 Cells, IL-8 IC50
Outline: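 IL-8 release after a 4 hr challenge with LPS (0.1 μg/mL, E. coli 0111:B4) following a 2 hr compound pretreatment. Cells were human U937 monocytes differentiated to macrophage-type with PMA 100 ng/mL for 48–72 hr. Relative 50% effective concentration derived from concentration–response data.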

[6] = tested on: ICAM-1 expression, BEAS2B cells; assay: Poly I:C-induced ICAM-1 expression in BEAS2B cells; format: cell-based; settings: Homo sapiens, BEAS-2B; read-out: Poly IC induced ICAM1 in BEAS2B, IC50
Outline: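 BEAS2B human bronchial epithelial cells pre-incubated 2 h with compound, then transfected with poly I:C (1 μg/mL) plus Oligofectamine. After 18 h, cell-surface ICAM-1 read by cell-based ELISA (A450–655), normalised to Crystal Violet cell number (A595); inhibition calculated against vehicle control at each concentration.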

[7] = tested on: d-U937 cells; assay: Cell viability: MTT assay; format: cell-based, human; settings: 1 μg/mL
Outline: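 Differentiated U937 cells exposed to compound at 1 or 10 μg/mL, either 4 h in 5% FCS or 24 h in 10% FCS RPMI1640. MTT then added for 1 h, formazan dissolved in DMSO and read at 550 nm. Viability loss given as % versus 0.5% DMSO vehicle; apparent gains appear negative.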

cSrc, sequence (P12931 whole entry): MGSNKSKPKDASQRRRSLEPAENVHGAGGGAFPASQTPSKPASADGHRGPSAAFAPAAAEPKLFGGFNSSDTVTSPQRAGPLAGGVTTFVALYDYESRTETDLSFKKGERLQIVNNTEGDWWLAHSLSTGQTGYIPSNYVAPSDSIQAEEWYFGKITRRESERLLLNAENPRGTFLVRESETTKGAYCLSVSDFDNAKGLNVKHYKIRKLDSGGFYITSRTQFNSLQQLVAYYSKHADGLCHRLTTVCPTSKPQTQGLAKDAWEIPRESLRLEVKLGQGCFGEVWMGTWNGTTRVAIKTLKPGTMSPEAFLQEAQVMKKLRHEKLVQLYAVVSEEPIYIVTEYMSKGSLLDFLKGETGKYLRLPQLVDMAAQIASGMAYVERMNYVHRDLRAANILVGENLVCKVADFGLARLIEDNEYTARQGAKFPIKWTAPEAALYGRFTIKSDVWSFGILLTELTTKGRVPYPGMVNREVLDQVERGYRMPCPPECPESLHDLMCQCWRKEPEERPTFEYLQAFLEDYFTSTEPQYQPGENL

SMILES | IC50 [1] | IC50 [2] | IC50 [3] | EC50 [4] | IC50 [5] | IC50 [6] | Cell viability at time point in d-U937 cells, 4 h [7] | Cell viability at time point in d-U937 cells, 24 h [7]
COc1ccc(-n2nc(C(C)C)cc2NC(=O)Nc2ccc(Oc3cc(Nc4cc(OC)cc(C(=O)NCCN5CCOCC5)c4)ncn3)c3ccccc23)cc1 [Example 14, 3-((6-((4-(3-(3-isopropyl-1-(4-methoxyphenyl)-1H-pyrazol-5-yl)ureido)naphthalen-1-yl)oxy)pyrimidin-4-yl)amino)-5-methoxy-N-(2-morpholinoethyl)benzamide] | 4 nM | > 1300 nM | 355 nM | 1.2 nM | 5 nM | 3 nM | −ve (−ve and +ve indicate that the value is below and above respectively, the no significant effect threshold, defined as 30% inhibition at 1 μg/mL at the time point indicated) | +ve (−ve and +ve indicate that the value is below and above respectively, the no significant effect threshold, defined as 30% inhibition at 1 μg/mL at the time point indicated)
Cc1ccc(-n2nc(C(C)(C)C)cc2NC(=O)Nc2ccc(Oc3ccnc(Nc4cccc(C(=O)N5CCOCC5)c4)n3)c3ccccc23)cc1 [Example 27, 1-(3-(tert-butyl)-1-(p-tolyl)-1H-pyrazol-5-yl)-3-(4-((2-((3-(morpholine-4-carbonyl)phenyl)amino)pyrimidin-4-yl)oxy)naphthalen-1-yl)urea] | 4 nM | 39 nM | 311 nM | 1.4 nM | 4.1 nM | 11.6 nM | −ve (−ve and +ve indicate that the value is below and above respectively, the no significant effect threshold, defined as 30% inhibition at 1 μg/mL at the time point indicated) | −ve (−ve and +ve indicate that the value is below and above respectively, the no significant effect threshold, defined as 30% inhibition at 1 μg/mL at the time point indicated)
COc1cc(Nc2nccc(Oc3ccc(NC(=O)Nc4cc(C(C)C)nn4-c4ccc(OC)nc4)c4ccccc34)n2)cc(C(=O)NCCN2CCOCC2)c1 [Example 10, 3-((4-((4-(3-(3-Isopropyl-1-(6-methoxypyridin-3-yl)-1H-pyrazol-5-yl)ureido)naphthalen-1-yl)oxy)pyrimidin-2-yl)amino)-5-methoxy-N-(2-morpholinoethyl)benzamide] | 2 nM | 4 nM | > 12900 nM | 1.3 nM | 1.8 nM | 7.3 nM | −ve (−ve and +ve indicate that the value is below and above respectively, the no significant effect threshold, defined as 30% inhibition at 1 μg/mL at the time point indicated) | −ve (−ve and +ve indicate that the value is below and above respectively, the no significant effect threshold, defined as 30% inhibition at 1 μg/mL at the time point indicated)
Cc1ccc(-n2nc(C(C)C)cc2NC(=O)Nc2ccc(Oc3ccnc(Nc4cc(Cl)cc(C(=O)NCCN5CCOCC5)c4)n3)c3ccccc23)cc1 [Example 60, 3-chloro-5-((4-((4-(3-(3-isopropyl-1-(p-tolyl)-1H-pyrazol-5-yl)ureido)naphthalen-1-yl)oxy)pyrimidin-2-yl)amino)-N-(2-morpholinoethyl)benzamide] | 13 nM | 60 nM | > 13200 nM | 1.1 nM | 3.9 nM | 132 nM | −ve (−ve and +ve indicate that the value is below and above respectively, the no significant effect threshold, defined as 30% inhibition at 1 μg/mL at the time point indicated) | −ve (−ve and +ve indicate that the value is below and above respectively, the no significant effect threshold, defined as 30% inhibition at 1 μg/mL at the time point indicated)
COc1cc(Nc2cc(Oc3ccc(NC(=O)Nc4cc(C(C)(C)C)nn4-c4ccc(C)cc4)c4ccccc34)ncn2)cc(C(=O)NCCN2CCOCC2)c1 [Example 72] | 4 nM | 202 nM | > 13000 nM | 1.2 nM | 2.1 nM | 2.6 nM | −ve (−ve and +ve indicate that the value is below and above respectively, the no significant effect threshold, defined as 30% inhibition at 1 μg/mL at the time point indicated) | −ve (−ve and +ve indicate that the value is below and above respectively, the no significant effect threshold, defined as 30% inhibition at 1 μg/mL at the time point indicated)

Further lines, with some results ahead:

IC50 [1] | IC50 [2] | IC50 [3] | EC50 [4] | IC50 [5] | SMILES | IC50 [6] | Cell viability at time point in d-U937 cells, 4 h [7] | Cell viability at time point in d-U937 cells, 24 h [7]
2 nM | 5 nM | 634 nM | 0.2 nM | 1.9 nM | COc1ccc(-n2nc(C(C)C)cc2NC(=O)Nc2ccc(Oc3ccnc(Nc4cc(OC)cc(C(=O)NCCN(C)C)c4)n3)c3ccccc23)cc1 [Example 6] | 1.2 nM | −ve (−ve and +ve indicate that the value is below and above respectively, the no significant effect threshold, defined as 30% inhibition at 1 μg/mL at the time point indicated) | −ve (−ve and +ve indicate that the value is below and above respectively, the no significant effect threshold, defined as 30% inhibition at 1 μg/mL at the time point indicated)
2 nM | 22 nM | 525 nM | 0.6 nM | 1.5 nM | COc1ccc(Nc2nccc(Oc3ccc(NC(=O)Nc4cc(C(C)C)nn4-c4ccc(C)cc4)c4ccccc34)n2)cc1C(=O)NCCN1CCOCC1 [Example 70, 5-((4-((4-(3-(3-isopropyl-1-(p-tolyl)-1H-pyrazol-5-yl)ureido)naphthalen-1-yl)oxy)pyrimidin-2-yl)amino)-2-methoxy-N-(2-morpholinoethyl)benzamide] | 8.9 nM | −ve (−ve and +ve indicate that the value is below and above respectively, the no significant effect threshold, defined as 30% inhibition at 1 μg/mL at the time point indicated) | −ve (−ve and +ve indicate that the value is below and above respectively, the no significant effect threshold, defined as 30% inhibition at 1 μg/mL at the time point indicated)
1 nM | 11 nM | 286 nM | 0.6 nM | 1.6 nM | Cc1ccc(-n2nc(C(C)(C)C)cc2NC(=O)Nc2ccc(Oc3ccnc(Nc4cccc(C(=O)NCCN5CCOCC5)c4)n3)c3ccccc23)cc1 [Example 3, 3-((4-((4-(3-(3-(tert-Butyl)-1-(p-tolyl)-1H-pyrazol-5-yl)ureido)naphthalen-1-yl)oxy)pyrimidin-2-yl)amino)-N-(2-morpholinoethyl)benzamide] | 0.7 nM | −ve (−ve and +ve indicate that the value is below and above respectively, the no significant effect threshold, defined as 30% inhibition at 1 μg/mL at the time point indicated) | −ve (−ve and +ve indicate that the value is below and above respectively, the no significant effect threshold, defined as 30% inhibition at 1 μg/mL at the time point indicated)
< 1 nM | 2 nM | 111 nM | 0.2 nM | 0.5 nM | COc1cc(Nc2nccc(Oc3ccc(NC(=O)Nc4cc(C(C)C)nn4-c4ccc(C)cc4)c4ccccc34)n2)cc(C(=O)N(C)CCN2CCOCC2)c1 [Example 68, 3-((4-((4-(3-(3-isopropyl-1-(p-tolyl)-1H-pyrazol-5-yl)ureido)naphthalen-1-yl)oxy)pyrimidin-2-yl)amino)-5-methoxy-N-methyl-N-(2-morpholinoethyl)benzamide] | 3.9 nM | −ve (−ve and +ve indicate that the value is below and above respectively, the no significant effect threshold, defined as 30% inhibition at 1 μg/mL at the time point indicated) | −ve (−ve and +ve indicate that the value is below and above respectively, the no significant effect threshold, defined as 30% inhibition at 1 μg/mL at the time point indicated)
